Data taken from patent US20220331301A1, “CYSTIC FIBROSIS TRANSMEMBRANE CONDUCTANCE REGULATOR MODULATORS FOR TREATING AUTOSOMAL RESESSIVE POLYCYSTIC KIDNEY DISEASE” (The Johns Hopkins University, priority 2021, published 2022).
“Also recorded” adds a separate entry of the source.

Tests used:
[1] = test system: Pkhd1^del4/del4 cholangiocytes; experiment: Fura-2 Ca2+ imaging, thapsigargin-induced ER Ca2+ release in cholangiocytes; assay type: cell-based, mice; details: VX-809 (10 μM) for 16 h; thapsigargin (4 μM)
Method: FIG. 6A, FIG. 6B, and FIG. 6C show intracellular Ca2+ (F340/F380) levels obtained by ratiometric Fura-2 AM analysis of WT and Pkhd1^del4/del4 cholangiocytes, the latter treated with VX-809 (10 μM) for 16 h. (FIG. 6A) Representative traces of ER Ca2+ release in response to thapsigargin (4 μM) in WT and Pkhd1^del4/del4 cholangiocytes the latter treated with VX-809. Resting calcium levels (FIG. 6B and the average amplitude of Ca2+ release (FIG. 6C) in response to thapsigargin;
The ER is one of the major repositories for Ca2+ in the cell. Burgoyne et al., 2015. Misregulation of Ca2+ signaling is a hallmark of ADPKD. Yanda et al., 2019b. To understand whether the ER Ca2+ movement is altered, we measured ER Ca2+ release; we treated the cells with thapsigargin, a specific inhibitor of the ER Ca2+-ATPase that, when applied, allows Ca2+ to leak out of the ER through independent Ca2+-permeable pathways. Jackson et al., 1988; Thastrup et al., 1990; Thastrup et al., 1989.
The cells were loaded with the cell-permeant acetoxymethyl (AM) ester of the calcium indicator fura-2 (fura-2/AM) at 37° C. for 90 min. […] A Zeiss FluorArc mercury lamp was used to excite the cells at 340 and 380 nm, and the emission response was measured at 510 nm. Cell fluorescence was measured in response to excitation for 1000 ms at 340 nm and 200 ms at 380 nm once every 4 s. […]

Pkhd1^del3-4/del3-4 mice = experiment: Ki67 proliferation in bile duct epithelia of Pkhd1^del3-4/del3-4 mice; assay type: in vivo; details: 30 mg/kg every other day for 30 days
Text: FIG. 12A and FIG. 12B show Ki67 expression in WT and Pkhd1^del3-4/del3-4 mice bile duct epithelia. […] Merged red and green channels are shown, wherein yellow indicates colocalization; the white square indicates the area of enlargement shown. FIG. 12B summarizes the Pearson's Correlation coefficient R for the images of FIG. 12A. The graph compares the percentage of cells positive for Ki67. Number of cells analyzed for WT, n=196, Pkhd1^del3-4/del3-4, n=324, Pkhd1^del3-4/del3-4+VX-809, n=344 Samples were incubated with 5 μg/ml primary antibody Ki67 (Abcam #ab15580) and CK19 (Invitrogen #MA5-15884) in blocking buffer for 16 hours at 4° C. Goat anti-rabbit Alexa Fluor 594 and anti-mouse Alexa Flour 488 conjugated secondary antibodies were used at a 1/250 dilution for 1 hour to label the proteins. Scale bar is 10 μm. Bars represent the means±SEM. […]
Experiments were conducted during the development of embodiments of the technology described herein to test if CFTR correctors affect proliferation of cholangiocytes. In these experiments, proliferation in the livers of Pkhd1^del3-4/del3-4 cholangiocytes in bile duct epithelia was measured using confocal microscopy and the proliferation marker Ki67. […]

Pkhd1 kidney cells = experiment: Fura-2 Ca2+ release in renal ARPKD cell line; assay type: cell-based, human; details: VX-809 (10 μM) for 16 hours
Method: FIG. 16A, FIG. 16B, and FIG. 16C show Ca^2+ release in a renal ARPKD cell line treated with VX-809. Intracellular Ca^2+ (F340/F380) levels were measured by ratiometric Fura-2 AM analysis of WT and Pkhd1 kidney cells treated with VX-809 (10 μM) for 16 hours. […] Amplitude was measured as the […] base to peak Δf/f. Asterisk indicates significance between the two groups. Significance between the two groups was analyzed using Student's t-test, n=5-6. ****P<0.0001.
(§1) The cells were loaded with the cell-permeant acetoxymethyl (AM) ester of the calcium indicator fura-2 (fura-2/AM) at 37° C. for 90 min. Measurements were made on a Zeiss inverted microscope equipped with a Sutter Lambda 10-2 controller and filter wheel assembly. A Zeiss FluorArc mercury lamp was used to excite the cells at 340 and 380 nm, and the emission response was measured at 510 nm. Cell fluorescence was measured in response to excitation for 1000 ms at 340 nm and 200 ms at 380 nm once every 4 s. Image acquisition, image analysis, and filter wheel control were performed with IPLab software (see Yanda et al., 2019b). […]

PLD liver cells = experiment: Fura-2 Ca2+ release in PLD human liver cell lines; assay type: cell-based; details: VX-809 (10 μM) for 16 hours
Method: FIG. 17A-17F show Ca^2+ release in PLD human liver cell lines treated with VX-809. Intracellular Ca^2+ (F340/F380) levels were measured by ratiometric Fura-2 AM analysis of WT and PLD liver cells treated with VX-809 (10 μM) for 16 hours. FIG. 7A FIG. 7B show representative traces of ER Ca^2+ release in response to thapsigargin (4 μM) in WT and PLD liver cells treated with VX-809. FIG. 7C and FIG. 7D show resting Ca^2+ levels. FIG. 7E and FIG. 7F show the average amplitude of Ca^2+ release in response to thapsigargin. Amplitude was measured as the […] of the signal base to peak Δf/f. Significance between the two groups was analyzed using Student's t-test, n=5-6. ****P<0.0001.
as §1

[2] = test system: renal cell models of ADPKD; details: shown previously, Yanda et al., 2018; cited from earlier work

lumacaftor [VX-809]
thapsigargin-induced ER Ca2+ release [1]: dramatically reduced
Ki67 colocalization with CK19 in cholangiocytes (proliferation), Pearson's Correlation coefficient R (Pkhd1^del3-4/del3-4 mice): reduced proliferation; also recorded: reduces colocalization
percent cells positive for Ki67 (Pkhd1^del3-4/del3-4 mice): levels were reduced
resting Ca^2+ (Pkhd1 kidney cells): not affected
thapsigargin-induced ER Ca^2+ release (Pkhd1 kidney cells; thapsigargin (4 μM)): dramatically reduced; also recorded: significantly lowered
resting Ca^2+ (PLD liver cells): not affected
thapsigargin-induced ER Ca^2+ release (PLD liver cells; thapsigargin (4 μM)): significantly lowered
cysts in renal cell models of ADPKD [2]: can reduce cysts
